Here are results for 5 molecules from patent publication US5670500A (priority 1995, dated 1997).

The conditions of data set [1]: in vivo; cited from earlier work.
Data set [2] deals with Colon 26. The data set can be described thus: Efficacy in mouse tumor models: Colon Carcinoma 26. It is filed as in vivo. Conditions: Colon 26 mouse model. How it is done: (§1) The efficacy of the compounds of the present invention was also tested in vivo using three well-known mouse tumor models: L1210, Lewis Lung, and Colon Carcinoma 26.
Data set [3] has as its system solid tumor cancers, particularly ovarian cancer and non-small cell lung carcinoma. The note with it: humans; cited from earlier work.
Data set [4] has as its system wild-type (AUX-B1) Chinese Hamster ovary cells. In words: CHO Microtiter Cytotoxicity Assay, wild type. Conditions: Cricetulus griseus, AuxB1, 72 h, 3 days, XTT. The data set is classed as cell-based. How it is done: (§2) CHO Microtiter Cytotoxicity Assay
(§3) Chinese Hamster ovary cells are grown in Alpha MEM Medium with L-glutamine and nucleosides and containing 10% fetal bovine serum and 100 units per mL penicillin-streptomycin in 75 cm^2 canted neck tissue culture flasks. They are harvested from these flasks using 0.5% trypsin. Microtiter plates (96-well, sterile, flat bottom) (Corning 25860) are seeded with 1.6×10^3 wild-type (AUX-B1) Chinese Hamster ovary cells per well or 2×10^3 multidrug resistant (CH^R C5) Chinese Hamster ovary cells per well. The plates are incubated at 37° C., 5% CO2 overnight to allow the cells to attach. The outside wells of each plate are not used, due to evaporation during the incubation time. They are filled with medium and used as blanks. The next day, the medium is aspirated from the wells and 180 μL of fresh medium is added to each well. Compounds are diluted from stock solution in DMSO into fresh medium to a 10X concentration containing 2% DMSO. Twenty μL of this is then added to the 180 μL of fresh meduim in the wells. The plates are then incubated for another 3 days at 37° C., 5% CO2. […] The plate is then read on a UV Max plate reader, using wells without cells .(i.e., containing only 200 μL of medium and 50 μL of XTT/PMS solution) as a background control.

The test system of data set [5] is multidrug resistant (CH^R C5) Chinese Hamster ovary cells. In words: CHO Microtiter Cytotoxicity Assay, multidrug resistant. It is filed as cell-based. The note with it: Cricetulus griseus, CHRC5, 72 h, 3 days, XTT. How it is done: as §2, §3
The subject of data set [6] is Lewis Lung. The data set can be described thus: Efficacy in mouse tumor models: Lewis Lung. It is filed as in vivo. The note with it: Lewis Lung mouse model, dose 9 mg/kg ip. As to the method: as §1
Data set [7] concerns the target T1, topoisomerase I (Homo sapiens, UniProt P11387).
T1 sequence (P11387 1-765): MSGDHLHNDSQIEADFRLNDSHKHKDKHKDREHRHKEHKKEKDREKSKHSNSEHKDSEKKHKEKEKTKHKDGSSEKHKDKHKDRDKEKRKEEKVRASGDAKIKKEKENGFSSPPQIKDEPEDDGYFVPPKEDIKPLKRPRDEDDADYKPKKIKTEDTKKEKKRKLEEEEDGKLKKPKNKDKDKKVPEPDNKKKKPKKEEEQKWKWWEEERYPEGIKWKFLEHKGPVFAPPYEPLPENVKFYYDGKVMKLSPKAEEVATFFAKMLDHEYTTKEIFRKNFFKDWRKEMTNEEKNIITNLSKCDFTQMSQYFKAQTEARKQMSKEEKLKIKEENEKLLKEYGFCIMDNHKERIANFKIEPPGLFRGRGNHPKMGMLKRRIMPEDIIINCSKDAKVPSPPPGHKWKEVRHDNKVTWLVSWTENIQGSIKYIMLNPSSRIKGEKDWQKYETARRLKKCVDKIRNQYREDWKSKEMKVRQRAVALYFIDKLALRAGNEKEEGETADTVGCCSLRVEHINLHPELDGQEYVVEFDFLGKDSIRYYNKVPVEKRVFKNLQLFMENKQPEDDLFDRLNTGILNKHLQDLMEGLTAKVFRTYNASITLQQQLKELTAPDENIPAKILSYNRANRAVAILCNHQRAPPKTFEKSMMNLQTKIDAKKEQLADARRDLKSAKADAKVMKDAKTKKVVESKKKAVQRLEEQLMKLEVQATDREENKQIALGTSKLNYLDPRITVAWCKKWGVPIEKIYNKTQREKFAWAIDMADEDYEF
Conditions: cited from earlier work.

Data set [8] relates to topoisomerase II. Conditions: cited from earlier work.
The subject of data set [9] is L1210. In words: Efficacy in mouse tumor models: L1210. The data set is classed as in vivo. The note with it: L1210 mouse model, dose 42 mg/kg ip. How it is done: as §1

Take “(S)-10-amino-4-ethyl-4-hydroxy-1H-pyrano[3',4':6,7]indolizino [1,2-b]quinoline-3,14(4H,12H)-dione [CPT-11]”: the toxicity result in data set [1] is recorded as “adverse toxicity profile”.

Turning to `CC[C@@]1(O)C(=O)OCc2c1cc1n(c2=O)Cc2cc3c(CN(C)C)c(O)ccc3nc2-1` [Topotecan, 9-dimethylaminomethyl-10-hydroxycamptothecin, reference compound], in data set [2] (dose 20 mg/kg sc), the “% Inc. in Lifespan, Colon 26” value is 45%. In addition, the “efficacy in clinical tests” value in data set [3] was “demonstrated efficacy against several solid tumor cancers, particularly ovarian cancer and non-small cell lung carcinoma”.

For the molecule `CC[C@@]1(O)C(=O)OCc2c1cc1n(c2=O)Cc2cc3c4c(ccc3nc2-1)OC(CN(C)C)C4` (stereo partly drawn) [Formula IV, (8S)-2-[(dimethylamino)methyl]-8-ethyl-1,2-dihydro-8-hydroxy-11H-furano[3,2-f]-pyrano [3',4':6,7]indolizino[1,2-b]quinoline-9,12(8H,14H)-dione], the IC50 in data set [4] is 0.018 µM; in data set [5], 1 µM. Also, the “% Inc. in Lifespan, Lewis Lung” value in [6] amounted to 67%. Also, the “% Inc. in Lifespan, Colon 26” value in [2] (dose 20 mg/kg sc) was found to be 32%.

Take `CC[C@@]1(O)C(=O)OCc2c1cc1n(c2=O)Cc2cc3ccccc3nc2-1` [Camptothecin]: the “% Inc. in Lifespan, Colon 26” value in [2] (dose 4 mg/kg ip) is recorded as 50%. The “inhibition of topoisomerase I” value in [7] is reported as “inhibit topoisomerase I”. Besides, in data set [8], the “effect on topoisomerase II” value is “no effect on topoisomerase II”. Also, the toxicity entry in [1] is given as “unacceptable dose limiting toxicity, unpredictable toxicity”.

In the case of `CC[C@@]1(O)C(=O)OCc2c1cc1n(c2=O)Cc2cc3c4c(ccc3nc2-1)OC(CN1CCOCC1)C4` (stereo partly drawn) [Formula III, (8S)-8-ethyl-1,2-dihydro-8-hydroxy-2(4-morpholinylmethyl)11H-furano [3,2-f]-pyrano[3',4':6,7]indolizino[1,2-b]quinoline-9,12(8H,14H)-dione], the IC50 in data set [4] worked out at 0.0055 µM; in data set [5], 0.42 µM. In data set [9], the “% Inc. in Lifespan, L1210” value is recorded as 350%. For the same molecule, in data set [2] (dose 20 mg/kg sc), the “% Inc. in Lifespan, Colon 26” value is on record as 45%.
